Positions count from the first letter of the chain named.
Assays:
mTAAR8c = target: T1, mTAAR8c (Mus musculus, UniProt Q5QD05); assay: CRE-luciferase reporter assay in Hana3A, mouse olfactory TAARs; type: cell-based; details: ligand 500 μM, Fig. 1D
T1 construct: expressed in transfected cells; host or cells: Hana3A (HEK293-derived)
Experimental: (§1) Mammalian TAAR9 plasmids were transfected into Hana3A cells along with a cAMP-dependent luciferase reporter plasmid (CRE-Luc). Transfected cells were incubated with tested ligands, and luciferase activity was quantified with a […] substrate as a reporter for Golf-mediated TAAR activation. Luciferase activity was indicated by the luminescence value and normalized as a fold-increase over the response to the vehicle stimuli (mean ± S.D., n = 3). […] B, Hana3A cells expressing mouse, rat, human, cat, hamster, and rabbit TAAR9 were incubated with either vehicle or tested ligands (1 mM) and assayed for reporter activity. C, concentration-dependent luciferase activity in Hana3A cells expressing mouse, rat, and cat TAAR9 receptors stimulated with cadaverine, spermidine, and spermine.
(§2) We then sought to determine if other mouse olfactory TAARs are activated by the mTAAR9 ligands.
(§3) The firefly luciferase and renilla luciferase activity was measured with a BioTek microplate reader following manufacturer’s instructions.

WT mTAAR9 = target: T2, WT mTAAR9 (Mus musculus, UniProt Q5QD04); assay: CRE-luciferase reporter assay, wild-type mTAAR9 in Hana3A; type: cell-based; details: WT mTAAR9, Hana3A, CRE-luciferase; read-out: EC50 (mean ± S.D., n = 3)
T2 construct: Rho-tag (first 20 amino acids of bovine rhodopsin) (N); expressed in transfected cells; host or cells: Hana3A (HEK293-derived)
T2 sequence (Q5QD04 1-348): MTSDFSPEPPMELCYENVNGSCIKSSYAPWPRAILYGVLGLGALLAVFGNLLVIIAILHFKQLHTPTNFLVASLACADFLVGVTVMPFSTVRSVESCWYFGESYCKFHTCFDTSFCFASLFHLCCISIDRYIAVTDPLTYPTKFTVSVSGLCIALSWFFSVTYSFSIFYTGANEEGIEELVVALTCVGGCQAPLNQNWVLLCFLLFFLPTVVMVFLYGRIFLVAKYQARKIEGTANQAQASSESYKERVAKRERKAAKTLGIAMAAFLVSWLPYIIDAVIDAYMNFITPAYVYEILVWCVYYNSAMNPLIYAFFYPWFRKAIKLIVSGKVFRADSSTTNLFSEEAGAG
Experimental: as §1, §3

mTAAR9 W7.40F = target: T3, mTAAR9 W7.40F (Mus musculus, UniProt Q5QD04, W298F); assay: CRE-luciferase reporter assay, mTAAR9 mutant in Hana3A; type: cell-based; details: read-out: EC50 (mean ± S.D., n = 3)
T3 construct: expressed in transfected cells; host or cells: Hana3A (HEK293-derived)
T3 sequence (Q5QD04 1-348 W298F): T2 sequence (Q5QD04 1-348) with W298F

mTAAR9 W7.40Y = target: T4, mTAAR9 W7.40Y (Mus musculus, UniProt Q5QD04, W298Y); assay: as above; type: cell-based; details: read-out: EC50 (mean ± S.D., n = 3)
T4 construct: expressed in transfected cells; host or cells: Hana3A (HEK293-derived)
T4 sequence (Q5QD04 whole entry W298Y): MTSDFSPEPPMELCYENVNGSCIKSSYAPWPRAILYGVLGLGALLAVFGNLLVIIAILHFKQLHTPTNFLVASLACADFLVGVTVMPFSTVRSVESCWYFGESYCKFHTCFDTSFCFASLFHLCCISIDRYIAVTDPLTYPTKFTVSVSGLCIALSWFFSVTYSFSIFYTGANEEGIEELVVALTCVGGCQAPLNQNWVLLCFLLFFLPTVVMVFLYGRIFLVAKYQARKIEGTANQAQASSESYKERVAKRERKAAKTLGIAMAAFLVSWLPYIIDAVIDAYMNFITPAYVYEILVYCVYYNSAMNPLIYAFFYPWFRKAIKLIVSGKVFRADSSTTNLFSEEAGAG

Rat TAAR9 = target: T5, Rat TAAR9 (Rattus norvegicus, UniProt Q923Y6); assay: CRE-luciferase reporter assay in Hana3A; type: cell-based; details: rat TAAR9, ligand 1 mM, Fig. 1B
T5 construct: expressed in transfected cells; host or cells: Hana3A (HEK293-derived)
T5 sequence (Q923Y6 1-338): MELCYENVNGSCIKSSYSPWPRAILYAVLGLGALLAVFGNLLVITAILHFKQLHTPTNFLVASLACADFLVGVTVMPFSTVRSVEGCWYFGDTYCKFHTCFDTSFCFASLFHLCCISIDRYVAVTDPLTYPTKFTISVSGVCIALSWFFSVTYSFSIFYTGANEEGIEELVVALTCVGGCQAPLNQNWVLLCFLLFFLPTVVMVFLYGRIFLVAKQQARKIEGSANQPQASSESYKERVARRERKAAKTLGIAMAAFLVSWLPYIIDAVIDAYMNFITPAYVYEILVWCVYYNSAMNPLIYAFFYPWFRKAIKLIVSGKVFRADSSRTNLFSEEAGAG
Experimental: We examined the response of TAAR9s from rat, human, hamster, and rabbit to the stimulation of 1 mM amines using a well-established cAMP response element (CRE)-driven luciferase reporter assay based on Golf-mediated cAMP signal transduction ([5], [24]). In addition to the four mTAAR9 ligands, we included putrescine, which is also a polyamine and precursor of spermine/spermidine biosynthesis.
as §1, §3

mTAAR9 Y6.51W = target: T6, mTAAR9 Y6.51W (Mus musculus, UniProt Q5QD04, Y274W); assay: CRE-luciferase reporter assay, mTAAR9 mutant in Hana3A; type: cell-based; details: read-out: EC50 (mean ± S.D., n = 3)
T6 construct: expressed in transfected cells; host or cells: Hana3A (HEK293-derived)
T6 sequence (Q5QD04 1-348 Y274W): T2 sequence (Q5QD04 1-348) with Y274W

mTAAR9 W7.40A = target: T7, mTAAR9 W7.40A (Mus musculus, UniProt Q5QD04, W298A); assay: as above; type: cell-based; details: read-out: EC50 (mean ± S.D., n = 3)
T7 construct: expressed in transfected cells; host or cells: Hana3A (HEK293-derived)
T7 sequence (Q5QD04 1-348 W298A): T2 sequence (Q5QD04 1-348) with W298A

mTAAR9 E7.36D = target: T8, mTAAR9 E7.36D (Mus musculus, UniProt Q5QD04, E294D); assay: as above; type: cell-based; details: read-out: EC50 (mean ± S.D., n = 3)
T8 construct: expressed in transfected cells; host or cells: Hana3A (HEK293-derived)
T8 sequence (Q5QD04 1-348 E294D): T2 sequence (Q5QD04 1-348) with E294D

mTAAR7f = mTAAR7f (Mus musculus, UniProt Q5QD08); details: ligand 500 μM, Fig. 1D
mTAAR7f, sequence (Q5QD08 whole entry): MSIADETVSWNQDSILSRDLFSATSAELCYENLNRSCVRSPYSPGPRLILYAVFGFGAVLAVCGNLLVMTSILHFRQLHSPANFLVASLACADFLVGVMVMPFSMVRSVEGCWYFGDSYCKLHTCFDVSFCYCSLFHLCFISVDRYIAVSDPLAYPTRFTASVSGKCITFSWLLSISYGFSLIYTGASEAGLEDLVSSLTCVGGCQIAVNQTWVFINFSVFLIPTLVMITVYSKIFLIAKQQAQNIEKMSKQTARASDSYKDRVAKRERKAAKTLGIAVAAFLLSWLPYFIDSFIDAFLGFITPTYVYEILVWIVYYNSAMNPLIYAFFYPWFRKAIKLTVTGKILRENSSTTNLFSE
Experimental: as §1, §2, §3

mTAAR5 = mTAAR5 (Mus musculus, UniProt Q5QD14); details: mTAAR5, ligand 500 μM, Fig. 1D
mTAAR5, sequence (Q5QD14 whole entry): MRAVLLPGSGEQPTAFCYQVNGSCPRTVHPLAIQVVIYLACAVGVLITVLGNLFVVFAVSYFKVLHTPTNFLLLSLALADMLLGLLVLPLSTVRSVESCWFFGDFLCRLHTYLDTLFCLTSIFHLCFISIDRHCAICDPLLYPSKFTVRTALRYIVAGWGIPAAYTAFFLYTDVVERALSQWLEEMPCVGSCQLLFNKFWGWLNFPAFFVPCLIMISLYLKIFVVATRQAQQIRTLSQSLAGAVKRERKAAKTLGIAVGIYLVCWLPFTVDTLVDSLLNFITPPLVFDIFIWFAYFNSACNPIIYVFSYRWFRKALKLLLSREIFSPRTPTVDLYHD
Experimental: as §1, §2, §3

T1 sequence (Q5QD05 whole entry): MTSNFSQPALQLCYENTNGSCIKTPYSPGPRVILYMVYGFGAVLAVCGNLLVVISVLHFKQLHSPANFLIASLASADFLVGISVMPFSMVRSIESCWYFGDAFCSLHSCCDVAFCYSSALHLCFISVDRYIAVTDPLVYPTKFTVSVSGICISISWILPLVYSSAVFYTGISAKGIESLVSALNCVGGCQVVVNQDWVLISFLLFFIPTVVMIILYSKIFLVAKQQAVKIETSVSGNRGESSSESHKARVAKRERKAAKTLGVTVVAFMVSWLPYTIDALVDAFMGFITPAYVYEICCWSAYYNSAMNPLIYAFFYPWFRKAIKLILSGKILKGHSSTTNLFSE

SMILES | reporter activity (mTAAR8c) | EC50 (WT mTAAR9) | EC50 (mTAAR9 W7.40F) | EC50 (mTAAR9 W7.40Y) | reporter activity (activation of TAAR9) (Rat TAAR9) | EC50 (mTAAR9 Y6.51W) | EC50 (mTAAR9 W7.40A) | EC50 (mTAAR9 E7.36D) | reporter activity (mTAAR7f) | reporter activity (mTAAR5)
NCCCCNCCCN [spermidine] | modest activity | 43 ± 7 µM | 9 ± 7 µM | 2 ± 0.5 µM | maximum responses | > 1000 µM | 68 ± 48 µM | 142 ± 43 µM | – | –
CCN(CC)CC [triethylamine] | moderate activities | 251 ± 82 µM | 36 ± 16 µM | – | – | 355 ± 80 µM | > 1000 µM | > 1000 µM | robust responses | moderate activities

Source: publication PMC8546428, “Convergent olfactory trace amine-associated receptors detect biogenic polyamines with distinct motifs via a conserved binding site” (The Journal of Biological Chemistry, 2021)
